Assay results taken from ChEMBL document CHEMBL4342402, “An insight into medicinal chemistry of anticancer quinoxalines” (Bioorg Med Chem, 2019).
pIC50: −log10 of the molar value. Values belong to the compound of their own block, whether it stands above or below them.

Experiments:
[1] = Inhibition of Marthasterias glacialis oocyte CDK1/cyclin B using histone as substrate in presence of [gamma32P]ATP after 10 mins by scintillation counting method
[2] = molecular target: Cyclin-dependent kinase 5/CDK5 activator 1 (Homo sapiens, UniProt Q00535); experiment: Inhibition of CDK5/p25 (unknown origin) expressed in Escherichia coli using histone as substrate in presence of [gamma32P]ATP after 10 mins by scintillation counting method
BE = experiment: Antiangiogenic activity in human BE cells after 24 hrs by MTT assay; assay type: functional, cell-based
HUVEC = experiment: Antiangiogenic activity in HUVEC after 24 hrs by MTT assay; assay type: functional, cell-based; conditions: Homo sapiens
U-87 MG = experiment: Antiangiogenic activity in human U87cells after 24 hrs by MTT assay; assay type: functional, cell-based, U-87MG ATCC
[3] = Inhibition of phosphoinositide 3-Kinase (unknown origin); parameters: species or system Homo sapiens
MCF7 = experiment: Cytotoxicity against human MCF7 cells after 48 hrs by MTT assay; assay type: functional, cell-based; conditions: MCF7, 48 h
HCT-15 = experiment: Antiproliferative activity against human HCT15 cells; assay type: functional, cell-based
SK-OV-3 = experiment: Antiproliferative activity against human SKOV3 cells; assay type: functional, cell-based
[4] = molecular target: Platelet-derived growth factor receptor beta (Homo sapiens, UniProt P09619); experiment: Inhibition of human PDGFR beta
[5] = Inhibition of PDGFR in mouse NIH/3T3 cells assessed as reduction in tyrosine phosphorylation incubated for 2 hrs by SDS-PAGE based immunoblot assay; assay type: cell-based; conditions: NIH3T3, 2 h
[6] = molecular target: Epidermal growth factor receptor (Homo sapiens, UniProt P00533); experiment: Inhibition of EGFR in human A431 cells incubated for 2 hrs followed by EGF stimulation and measured after 10 mins by immunoblot assay; assay type: cell-based
[7] = molecular target: T1, Receptor-type tyrosine-protein kinase FLT3 (Homo sapiens, UniProt P36888); experiment: Inhibition of human FLT3 expressed in mouse BAF3 cells assessed as reduction in […] incubated for 2 hrs followed by FLT3 ligand stimulation by immunoblot analysis; assay type: cell-based
T1 sequence (P36888 whole entry): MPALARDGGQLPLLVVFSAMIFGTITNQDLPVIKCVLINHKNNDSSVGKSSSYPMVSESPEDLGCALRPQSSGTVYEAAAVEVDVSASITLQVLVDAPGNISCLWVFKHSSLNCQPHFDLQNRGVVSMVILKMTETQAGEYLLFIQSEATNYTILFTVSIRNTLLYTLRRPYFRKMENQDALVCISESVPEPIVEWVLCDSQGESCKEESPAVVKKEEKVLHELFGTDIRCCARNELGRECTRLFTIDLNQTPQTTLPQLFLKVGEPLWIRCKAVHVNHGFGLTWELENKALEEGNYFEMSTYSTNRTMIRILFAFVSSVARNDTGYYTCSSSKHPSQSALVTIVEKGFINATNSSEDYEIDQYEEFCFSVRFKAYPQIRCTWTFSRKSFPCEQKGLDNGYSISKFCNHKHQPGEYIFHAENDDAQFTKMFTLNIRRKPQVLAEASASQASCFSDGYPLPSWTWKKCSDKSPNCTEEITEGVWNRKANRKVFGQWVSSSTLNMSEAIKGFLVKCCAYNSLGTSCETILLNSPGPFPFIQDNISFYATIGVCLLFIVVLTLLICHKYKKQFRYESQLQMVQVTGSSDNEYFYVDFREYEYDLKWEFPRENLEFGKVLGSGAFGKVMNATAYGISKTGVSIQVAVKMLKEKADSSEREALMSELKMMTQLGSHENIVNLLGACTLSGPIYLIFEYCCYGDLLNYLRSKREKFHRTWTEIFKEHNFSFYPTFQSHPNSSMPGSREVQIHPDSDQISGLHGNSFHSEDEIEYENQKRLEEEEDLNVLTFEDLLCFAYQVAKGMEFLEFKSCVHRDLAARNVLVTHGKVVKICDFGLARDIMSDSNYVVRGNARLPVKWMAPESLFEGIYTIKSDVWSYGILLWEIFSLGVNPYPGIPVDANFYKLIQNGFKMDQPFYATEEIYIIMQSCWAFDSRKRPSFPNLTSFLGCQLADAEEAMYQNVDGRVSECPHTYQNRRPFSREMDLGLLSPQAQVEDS

[8] = molecular target: Proto-oncogene tyrosine-protein kinase Src (Mus musculus, UniProt P05480); experiment: Inhibition of SRC in transformed mouse NIH3T3 cells by SDS-PAGE based immunoblot assay; assay type: cell-based
[9] = Inhibition of VEGFR (unknown origin); parameters: species or system Homo sapiens
[10] = molecular target: Mast/stem cell growth factor receptor Kit (Homo sapiens, UniProt P10721); experiment: Inhibition of c-KIT in human M-07e cells assessed as reduction in […] incubated for 2 hrs followed by KIT ligand stimulation by immunoblotting analysis; assay type: cell-based
[11] = molecular target: Insulin-like growth factor 1 receptor (Homo sapiens, UniProt P08069); experiment: Inhibition of IGFR1 (unknown origin) using poly (Glu,Tyr) 4:1 as substrate
PC-3 [12] = experiment: Cytotoxicity against human PC3 cells after 72 hrs in presence of 20% O2 by MTT assay; assay type: functional, cell-based; conditions: PC-3, 72 h
SMMC-7721 [13] = experiment: Cytotoxicity against human SMMC7721 cells after 72 hrs in presence of 3% O2 by MTT assay; assay type: functional, cell-based; conditions: SMMC-7721, 72 h
ECa-109 cell line [14] = experiment: Cytotoxicity against human ECA109 cells after 72 hrs in presence of 20% O2 by MTT assay; assay type: functional, cell-based; conditions: ECa-109, 72 h
SMMC-7721 [15] = experiment: Cytotoxicity against human SMMC7721 cells after 72 hrs in presence of 20% O2 by MTT assay; assay type: functional, cell-based; conditions: SMMC-7721, 72 h
SGC-7901 [16] = experiment: Cytotoxicity against human SGC7901 cells after 72 hrs in presence of 20% O2 by MTT assay; assay type: functional, cell-based; conditions: SGC-7901, 72 h
ECa-109 cell line [17] = experiment: Cytotoxicity against human ECA109 cells after 72 hrs in presence of 3% O2 by MTT assay; assay type: functional, cell-based; conditions: ECa-109, 72 h
K562 [18] = experiment: Cytotoxicity against human K562 cells after 72 hrs in presence of 3% O2 by MTT assay; assay type: functional, cell-based; conditions: K562, 72 h
SGC-7901 [19] = experiment: Cytotoxicity against human SGC7901 cells after 72 hrs in presence of 3% O2 by MTT assay; assay type: functional, cell-based; conditions: SGC-7901, 72 h
PC-3 [20] = experiment: Cytotoxicity against human PC3 cells after 72 hrs in presence of 3% O2 by MTT assay; assay type: functional, cell-based; conditions: PC-3, 72 h
K562 [21] = experiment: Cytotoxicity against human K562 cells after 72 hrs in presence of 20% O2 by MTT assay; assay type: functional, cell-based; conditions: K562, 72 h
[22] = Acute toxicity in po dosed Wistar rat measured up to 14 days; assay type: organism-based; conditions: in vivo
[23] = Half life in guinea pig plasma; assay type: ADME, cell-free, Cavia porcellus
[24] = Half life in rat plasma; assay type: ADME, cell-free
[25] = Half life in mouse plasma; assay type: ADME, cell-free

Chain of Mast/stem cell growth factor receptor Kit (P10721 whole entry): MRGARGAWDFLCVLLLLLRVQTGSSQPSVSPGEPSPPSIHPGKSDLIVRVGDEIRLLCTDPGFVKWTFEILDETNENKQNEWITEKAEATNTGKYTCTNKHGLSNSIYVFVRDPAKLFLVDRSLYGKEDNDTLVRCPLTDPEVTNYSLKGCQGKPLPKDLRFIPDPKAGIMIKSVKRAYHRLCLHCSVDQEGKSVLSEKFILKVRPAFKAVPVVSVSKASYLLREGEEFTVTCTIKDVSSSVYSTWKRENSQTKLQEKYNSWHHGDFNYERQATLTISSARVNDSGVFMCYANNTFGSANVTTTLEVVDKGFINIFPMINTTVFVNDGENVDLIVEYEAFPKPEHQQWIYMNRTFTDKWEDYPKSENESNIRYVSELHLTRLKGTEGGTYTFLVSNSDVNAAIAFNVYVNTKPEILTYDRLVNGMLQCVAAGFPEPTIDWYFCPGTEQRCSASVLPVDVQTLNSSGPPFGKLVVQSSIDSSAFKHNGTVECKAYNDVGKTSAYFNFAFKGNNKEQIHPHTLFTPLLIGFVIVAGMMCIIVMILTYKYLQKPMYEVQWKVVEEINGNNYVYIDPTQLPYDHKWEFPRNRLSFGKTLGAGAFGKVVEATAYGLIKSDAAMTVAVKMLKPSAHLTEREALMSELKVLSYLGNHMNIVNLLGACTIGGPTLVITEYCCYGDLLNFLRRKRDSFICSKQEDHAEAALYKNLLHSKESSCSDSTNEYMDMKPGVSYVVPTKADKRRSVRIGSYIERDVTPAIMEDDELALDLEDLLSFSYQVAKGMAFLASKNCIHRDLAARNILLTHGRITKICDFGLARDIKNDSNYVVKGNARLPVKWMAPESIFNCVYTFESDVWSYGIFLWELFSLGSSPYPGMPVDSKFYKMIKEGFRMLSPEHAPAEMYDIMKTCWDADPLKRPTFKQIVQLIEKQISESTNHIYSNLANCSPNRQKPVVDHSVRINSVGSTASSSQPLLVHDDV
Chain of Platelet-derived growth factor receptor beta (P09619 whole entry): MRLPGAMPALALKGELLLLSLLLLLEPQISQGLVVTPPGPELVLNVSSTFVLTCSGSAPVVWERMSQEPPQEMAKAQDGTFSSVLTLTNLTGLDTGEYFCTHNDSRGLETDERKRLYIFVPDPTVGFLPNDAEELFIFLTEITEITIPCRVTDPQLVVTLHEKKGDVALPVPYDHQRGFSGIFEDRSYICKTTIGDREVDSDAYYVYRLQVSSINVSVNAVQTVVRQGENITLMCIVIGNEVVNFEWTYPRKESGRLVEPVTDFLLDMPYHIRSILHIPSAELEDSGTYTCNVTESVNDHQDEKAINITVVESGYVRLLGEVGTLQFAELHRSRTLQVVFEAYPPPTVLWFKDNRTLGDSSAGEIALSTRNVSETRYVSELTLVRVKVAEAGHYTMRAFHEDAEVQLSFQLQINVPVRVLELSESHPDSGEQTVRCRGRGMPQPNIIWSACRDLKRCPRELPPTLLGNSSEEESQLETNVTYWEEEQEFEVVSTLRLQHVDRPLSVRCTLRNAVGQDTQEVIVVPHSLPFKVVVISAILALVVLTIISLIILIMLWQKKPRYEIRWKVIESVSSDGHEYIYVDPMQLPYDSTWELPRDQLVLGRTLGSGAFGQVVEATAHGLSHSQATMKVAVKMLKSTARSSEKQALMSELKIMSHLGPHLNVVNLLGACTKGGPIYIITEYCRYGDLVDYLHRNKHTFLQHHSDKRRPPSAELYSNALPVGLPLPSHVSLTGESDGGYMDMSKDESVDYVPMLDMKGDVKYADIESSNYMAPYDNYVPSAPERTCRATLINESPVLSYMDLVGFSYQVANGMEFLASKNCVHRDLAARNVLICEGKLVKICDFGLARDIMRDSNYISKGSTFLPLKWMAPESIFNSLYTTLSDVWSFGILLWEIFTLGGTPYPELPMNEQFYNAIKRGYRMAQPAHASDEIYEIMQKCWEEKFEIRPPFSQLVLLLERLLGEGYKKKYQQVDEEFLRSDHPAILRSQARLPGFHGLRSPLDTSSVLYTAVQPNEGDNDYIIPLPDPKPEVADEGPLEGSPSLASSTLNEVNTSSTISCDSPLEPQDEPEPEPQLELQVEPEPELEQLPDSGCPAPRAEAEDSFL
Chain of Proto-oncogene tyrosine-protein kinase Src (P05480 2-535 limits assumed): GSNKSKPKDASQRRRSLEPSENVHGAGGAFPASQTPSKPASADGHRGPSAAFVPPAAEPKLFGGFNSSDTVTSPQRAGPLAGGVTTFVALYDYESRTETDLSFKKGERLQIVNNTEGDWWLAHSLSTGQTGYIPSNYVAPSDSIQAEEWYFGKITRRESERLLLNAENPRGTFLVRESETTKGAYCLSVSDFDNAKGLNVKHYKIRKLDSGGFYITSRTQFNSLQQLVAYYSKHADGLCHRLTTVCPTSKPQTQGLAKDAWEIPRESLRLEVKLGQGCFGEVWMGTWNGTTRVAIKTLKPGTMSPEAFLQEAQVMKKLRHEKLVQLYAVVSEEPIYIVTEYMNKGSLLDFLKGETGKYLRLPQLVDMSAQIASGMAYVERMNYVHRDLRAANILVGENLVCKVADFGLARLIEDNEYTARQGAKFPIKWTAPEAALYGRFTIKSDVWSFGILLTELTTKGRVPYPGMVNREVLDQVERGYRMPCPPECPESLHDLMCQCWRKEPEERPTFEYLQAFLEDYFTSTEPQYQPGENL
Chain of Cyclin-dependent kinase 5/CDK5 activator 1 (Q00535 whole entry): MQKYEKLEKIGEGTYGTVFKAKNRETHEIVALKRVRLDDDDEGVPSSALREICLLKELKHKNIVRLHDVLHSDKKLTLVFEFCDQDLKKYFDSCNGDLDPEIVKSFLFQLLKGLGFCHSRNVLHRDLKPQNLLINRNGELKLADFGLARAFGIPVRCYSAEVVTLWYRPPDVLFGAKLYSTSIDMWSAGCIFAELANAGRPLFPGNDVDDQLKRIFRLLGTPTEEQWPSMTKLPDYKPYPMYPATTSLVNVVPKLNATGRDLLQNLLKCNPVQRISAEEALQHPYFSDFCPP
Chain of Cyclin-dependent kinase 5/CDK5 activator 1 (Q15078 whole entry, further chain): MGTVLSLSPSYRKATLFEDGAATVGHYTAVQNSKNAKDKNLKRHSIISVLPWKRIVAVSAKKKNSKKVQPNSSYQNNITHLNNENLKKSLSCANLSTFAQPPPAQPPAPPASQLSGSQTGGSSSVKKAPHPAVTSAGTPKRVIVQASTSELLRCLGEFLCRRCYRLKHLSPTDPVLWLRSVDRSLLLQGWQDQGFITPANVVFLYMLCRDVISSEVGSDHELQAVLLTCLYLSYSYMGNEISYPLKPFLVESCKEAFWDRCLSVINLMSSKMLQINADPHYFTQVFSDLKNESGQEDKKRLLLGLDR
Chain of Insulin-like growth factor 1 receptor (P08069 31-736 limits assumed): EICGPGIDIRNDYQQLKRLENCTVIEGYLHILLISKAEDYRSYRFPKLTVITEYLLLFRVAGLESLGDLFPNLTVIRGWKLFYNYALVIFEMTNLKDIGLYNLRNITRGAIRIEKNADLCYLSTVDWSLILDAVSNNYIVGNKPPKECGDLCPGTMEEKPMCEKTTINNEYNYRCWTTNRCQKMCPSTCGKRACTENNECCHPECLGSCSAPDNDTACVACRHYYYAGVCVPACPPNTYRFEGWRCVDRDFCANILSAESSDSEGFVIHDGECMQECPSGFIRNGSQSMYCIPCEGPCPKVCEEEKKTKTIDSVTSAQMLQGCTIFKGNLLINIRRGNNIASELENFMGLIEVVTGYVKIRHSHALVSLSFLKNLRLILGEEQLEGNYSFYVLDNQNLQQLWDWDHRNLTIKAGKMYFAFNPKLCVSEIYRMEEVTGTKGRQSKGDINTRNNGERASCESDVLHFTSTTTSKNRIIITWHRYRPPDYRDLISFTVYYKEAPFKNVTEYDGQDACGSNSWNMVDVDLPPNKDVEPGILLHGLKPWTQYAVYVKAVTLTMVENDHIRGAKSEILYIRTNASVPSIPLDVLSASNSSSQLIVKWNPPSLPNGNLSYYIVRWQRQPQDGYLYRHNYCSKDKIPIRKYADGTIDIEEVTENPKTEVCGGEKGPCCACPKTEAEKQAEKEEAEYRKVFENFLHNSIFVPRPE
Chain of Insulin-like growth factor 1 receptor (P08069 741-1367 limits assumed): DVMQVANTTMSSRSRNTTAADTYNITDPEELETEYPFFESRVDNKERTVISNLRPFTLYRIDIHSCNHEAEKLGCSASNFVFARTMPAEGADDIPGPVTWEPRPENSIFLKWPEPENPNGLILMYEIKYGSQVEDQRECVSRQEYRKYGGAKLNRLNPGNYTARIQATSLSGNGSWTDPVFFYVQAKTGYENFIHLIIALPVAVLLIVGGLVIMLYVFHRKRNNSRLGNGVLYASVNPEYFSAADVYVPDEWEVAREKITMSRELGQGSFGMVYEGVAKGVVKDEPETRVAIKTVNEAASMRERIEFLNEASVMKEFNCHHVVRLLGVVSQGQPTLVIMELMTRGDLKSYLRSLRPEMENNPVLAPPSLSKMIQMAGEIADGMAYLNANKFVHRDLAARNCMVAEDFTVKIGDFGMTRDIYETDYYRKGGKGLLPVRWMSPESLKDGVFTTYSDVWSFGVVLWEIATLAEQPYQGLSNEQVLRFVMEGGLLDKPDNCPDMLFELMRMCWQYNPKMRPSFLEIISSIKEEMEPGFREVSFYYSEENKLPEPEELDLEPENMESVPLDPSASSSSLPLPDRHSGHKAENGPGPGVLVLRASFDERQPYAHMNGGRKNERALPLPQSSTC

Compound: CC(=O)Oc1ccc(-c2cnc3cc(C)c(C)cc3n2)cc1O
pIC50 (BE): < 4.30
pIC50 (HUVEC): 4.26
pIC50 (U-87 MG): 4.37

Compound: C[n+]1c2ccccc2nc2c1c1cc(F)ccc1n2CCCCCC[N+]1(C)CCCCC1
pIC50 (MCF7): 5.80

Compound: COc1ccc(-c2cnc3cc(C)c(C)cc3n2)cc1O
pIC50 (BE): < 4.30
pIC50 (HUVEC): < 4.00
pIC50 (U-87 MG): < 4.30

Compound: CCCCCNCc1ccc2c(c1)C(=O)c1nccnc1C2=O
pIC50 (HCT-15): 7.30
pIC50 (SK-OV-3): 6.40

Compound: CCS(=O)(=O)c1c(-c2ccc(Br)cc2)[n+]([O-])c2cc(C)ccc2[n+]1[O-]
pIC50 (PC-3 [12]): > 5.00
pIC50 (SMMC-7721 [13]): 5.50
pIC50 (ECa-109 cell line [14]): > 5.00
pIC50 (SMMC-7721 [15]): > 5.00
pIC50 (SGC-7901 [16]): > 5.00
pIC50 (ECa-109 cell line [17]): 5.20
pIC50 (K562 [18]): 6.74
pIC50 (SGC-7901 [19]): 5.05
pIC50 (PC-3 [20]): 5.30
pIC50 (K562 [21]): > 5.00

Compound: CC(=O)c1c(C)[n+]([O-])c2ccccc2[n+]1[O-] [MEQUINDOX]
LD50 at 336 h [22]: 550 mg/kg

Compound: C[n+]1c2ccccc2nc2c1c1cc(F)ccc1n2CCCC[N+]1(C)CCCC1
pIC50 (MCF7): 5.74

Compound: CC(C)OC(=O)N1CCN(c2ncc(-c3ccc4nccnc4c3)cc2C#N)CC1
half-life [23]: 4.02 min
half-life [24]: 16.7 min
half-life [25]: 61 min

Compound: C[n+]1c2ccccc2nc2c1c1cc(F)ccc1n2CCCC[N+]1(C)CCCCC1
pIC50 (MCF7): 5.71

Further lines, with some results ahead:

pIC50 [1]: 6.22
pIC50 [2]: 6.40
Compound: Nc1n[nH]c2nc3ccccc3nc12 [QUINOXALINE1]

pIC50 (U-87 MG): < 4.30
Compound: Cc1cc2ncc(-c3ccc(O)c(O)c3)nc2cc1C
pIC50 (BE): < 4.30
pIC50 (HUVEC): 4.61

pIC50 [3]: 7.40
Compound: NC(=O)C1CCN(c2nc3ccccc3nc2S(=O)(=O)c2ccc(Br)cc2)CC1

pIC50 [3]: 7.40
Compound: O=S(=O)(c1ccccc1)c1nc2ccccc2nc1N1CCOCC1

pIC50 [3]: 7.40
Compound: O=S(=O)(c1ccc(Br)cc1)c1nc2ccccc2nc1N1CCC(O)CC1

pIC50 (U-87 MG): 4.80
Compound: Cc1cc2ncc(-c3ccc(OCc4ccccc4)c(O)c3)nc2cc1C
pIC50 (BE): 4.39
pIC50 (HUVEC): < 4.00

pIC50 [4]: 7.05
pIC50 [5]: 6.10
pIC50 [6]: < 4.52
pIC50 [7]: 5.52 to 6.00
pIC50 [8]: < 4.52
pIC50 [9]: < 4.52
pIC50 [10]: 5.52 to 6.00
pIC50 [11]: < 4.52
Compound: Cc1nc2cc3nc(-c4cccs4)cnc3cc2n1C

pIC50 [3]: 7.40
Compound: O=C(c1ccccc1)N1CCN(c2nc3ccccc3nc2S(=O)(=O)c2ccccc2)CC1
